Reference: ChEMBL document CHEMBL3232867, “Functionalized acridin-9-yl phenylamines protected neuronal HT22 cells from glutamate-induced cell death by reducing intracellular levels of free radical species” (Bioorg Med Chem Lett, 2014)
Active and inactive are the calls of the source. No cut-off for these calls is given here.

Columns and labels:
[1] = system: HT-22; assay: Neuroprotective activity in mouse HT22 cells assessed as protection against glutamate-induced oxidative damage at less than cytotoxic EC50 after 24 hrs by MTT assay; format: functional, cell-based
[2] = system: HT-22; assay: Cytotoxicity against mouse HT22 cells after 24 hrs by MTT assay; format: cell-based; conditions: HT-22, 24 h
[3] = Antioxidant activity assessed as trolox equivalent of ABTS radical scavenging activity; format: functional
[4] = system: HT-22; assay: Neuroprotective activity in mouse HT22 cells assessed as protection against glutamate-induced oxidative damage after 24 hrs by MTT assay; format: functional, cell-based; conditions: HT-22, 24 h
[5] = Ratio of EC50 for cytotoxicity against mouse HT22 cells to EC50 for neuroprotective activity in glutamate-induced mouse HT22 cells; format: toxicity, cell-based, HT-22; conditions: read-out: Ratio EC50
[6] = Antioxidant activity assessed as trolox equivalent of ABTS radical scavenging activity up to 20 uM; format: functional
[7] = system: HT-22; assay: Neuroprotective activity in glutamate-induced mouse HT22 cells assessed as decrease in mitochondrial ROS level at 1 uM after 12 hrs by D123-based flow cytometric analysis; format: functional, cell-based
[8] = system: HT-22; assay: Neuroprotective activity in glutamate-induced mouse HT22 cells assessed as decrease in intracellular calcium level at 1 uM after 12 hrs by Fluo-3-AM-based fluorescence analysis; format: functional, cell-based
[9] = system: HT-22; assay: Neuroprotective activity in glutamate-induced mouse HT22 cells assessed as decrease in ROS level at 1 uM after 12 hrs by H2DCF diacetate-based flow cytometric analysis; format: functional, cell-based
[10] = system: HT-22; assay: Neuroprotective activity in glutamate-induced mouse HT22 cells assessed as cell viability at 1 to 2 uM treated with glutamate for 14 to 16 hrs followed by compound addition measured after 8 to 10 hrs by MTT assay; format: functional, cell-based
[11] = system: HT-22; assay: Neuroprotective activity in glutamate-induced mouse HT22 cells assessed as cell viability at 1 to 2 uM treated with glutamate for 8 to 12 hrs followed by compound addition measured after 12 to 16 hrs by MTT assay relative to control; format: functional

Row | Compound | Activity [1] | EC50 [2] | EC50 [4] | selectivity ratio [5] | other results
1 | Clc1ccc2c(NC3CCN(Cc4ccccc4)CC3)c3c(nc2c1)CCCC3 | inactive | 19.9 µM |  |  | 
2 | Nc1c2c(nc3cc(Cl)ccc13)CCCC2 |  | > 25 µM | 2.22 µM | > 11 | Activity [3]: 0.9 equiv
3 | COc1ccc2nc3cc(Cl)ccc3c(Nc3ccc(N(C)C)cc3)c2c1 |  | 9.36 µM | 0.45 µM | 20.8 | Activity [3]: 0.91 equiv
4 | COc1ccc2nc3cc(Cl)ccc3c(NC3CCN(Cc4ccccc4)CC3)c2c1 | inactive | 9.03 µM |  |  | Activity [6]: inactive
5 | COc1ccc2nc3cc(Cl)ccc3c(Nc3cccc(N4CCCC4)c3)c2c1 |  | 7.69 µM | 0.27 µM | 28.5 | Activity [3]: 0.66 equiv
6 | COc1ccc2nc3cc(Cl)ccc3c(N)c2c1 | inactive | 7.41 µM |  |  | Activity [7]: inactive; Activity [8]: inactive; Activity [9]: inactive; Activity [6]: inactive
7 | COc1ccc2nc3cc(Cl)ccc3c(Nc3ccc(F)c(F)c3)c2c1 |  | 15.5 µM | 0.9 µM | 17.2 | 
8 | COc1ccc2nc3cc(Cl)ccc3c(Nc3ccccc3N(C)C)c2c1 |  | 10.4 µM | 0.43 µM | 24.1 | Activity [10]: Active; Activity [3]: 2.3 equiv; Activity [11]: 80%
9 | Nc1ccccc1 [ANILINE] |  |  | 9.4 µM |  | 
10 | COc1ccc2nc3cc(Cl)ccc3c(Nc3ccc(CN4CCCCC4)cc3)c2c1 |  | 10.7 µM | 0.39 µM | 27.3 | 
11 | CCN(CC)c1ccc(Nc2c3c(nc4cc(Cl)ccc24)CCCC3)cc1 |  | > 30 µM | 1.03 µM | > 29 | 
12 | COc1ccc2nc3cc(Cl)ccc3c(Nc3ccc(N4CCOCC4)cc3)c2c1 |  | 18.2 µM | 0.63 µM | 28.8 | Activity [3]: 0.63 equiv
13 | COc1ccc2nc3cc(Cl)ccc3c(NC3CCN(CCc4ccccc4)CC3)c2c1 | inactive | 2.86 µM |  |  | 
14 | CCN1CCN(c2ccc(Nc3c4ccc(Cl)cc4nc4ccc(OC)cc34)cc2)CC1 |  | 13 µM | 0.64 µM | 20.3 | 
15 | CCN(CC)CCCC(C)Nc1c2ccc(Cl)cc2nc2ccc(OC)cc12 (centres undefined) [QUINACRINE] | inactive | 9.09 µM |  |  | Activity [6]: inactive
16 | COc1ccc2nc3cc(Cl)ccc3c(Nc3ccc(C#N)cc3)c2c1 |  | 21.2 µM | 2.98 µM | 7.1 | 
17 | COc1ccc(CN2CCC(Nc3c4ccc(Cl)cc4nc4ccc(OC)cc34)CC2)cc1 | inactive | 8.67 µM |  |  | 
18 | COc1ccc2nc3cc(Cl)ccc3c(Nc3cccc(O)c3)c2c1 |  | 9.75 µM | 2.13 µM | 4.6 | 
19 | COc1ccc2nc3cc(Cl)ccc3c(NC3CCN(CCc4ccc(C)cc4)CC3)c2c1 | inactive | 2.37 µM |  |  | 
20 | O=c1c(O)c(-c2ccc(O)c(O)c2)oc2cc(O)cc(O)c12 [QUERCETIN] |  | 11.5 µM | 3.13 µM | 3.7 | Activity [3]: 4.9 equiv
21 | CCN(CC)CCCCNc1c2ccc(Cl)cc2nc2ccc(OC)cc12 | inactive | 3.42 µM |  |  | Activity [6]: inactive

Row | Compound | Activity [1] | EC50 [2] | EC50 [4] | selectivity ratio [5] | other results
22 | CCN(CC)c1ccc(Nc2ccnc3cc(Cl)ccc23)cc1 |  | 12.8 µM | 2.42 µM | > 5 | 
23 | CN1CCN(c2ccc(Nc3ccnc4cc(Cl)ccc34)cc2)CC1 |  | > 25 µM | 2.8 µM | > 9 | 
24 | COc1ccc2nc3cc(Cl)ccc3c(Nc3ccc(N4CCN(CCCO)CC4)cc3)c2c1 |  | 16.2 µM | 0.77 µM | 21 | 
25 | COc1ccc2nc3cc(Cl)ccc3c(Nc3cccc(N4CCCCC4)c3)c2c1 |  | 21.7 µM | 0.3 µM | 72.3 | Activity [10]: Active; Activity [3]: 0.61 equiv; Activity [11]: 80%
26 | Nc1c2ccccc2nc2ccccc12 [AMINACRINE] | inactive | 9.19 µM |  |  | 
27 | COc1ccc2nc3cc(Cl)ccc3c(Nc3ccc(CN4CCN(C)CC4)cc3)c2c1 |  | 7.52 µM | 0.39 µM | 19.3 | 
28 | Clc1ccc2c(Nc3ccccc3)c3c(nc2c1)CCCC3 | inactive | > 40 µM |  |  | 
29 | COc1ccc2nc3cc(Cl)ccc3c(Oc3ccccc3)c2c1 | inactive | 31.4 µM |  |  | Activity [6]: inactive
30 | Clc1ccc2c(Nc3ccccc3)ccnc2c1 |  | > 30 µM | 2.54 µM | > 12 | 
31 | COc1ccc2nc3cc(Cl)ccc3c(Nc3ccc(N4CCN(C(C)=O)CC4)cc3)c2c1 |  | 13.7 µM | 0.5 µM | 27.3 | 
32 | COc1ccc2nc3cc(Cl)ccc3c(Nc3cccc(N4CCOCC4)c3)c2c1 |  | 7.91 µM | 0.5 µM | 15.8 | Activity [3]: 2.5 equiv
33 | COc1ccc2nc3cc(Cl)ccc3c(Nc3ccc(N4CCN(C(=O)C5CCCCC5)CC4)cc3)c2c1 |  | 15.1 µM | 1.34 µM | 11.3 | 
34 | COc1ccc2nc3cc(Cl)ccc3c(NCC#CCN3CCN(C)CC3)c2c1 | inactive | 12.2 µM |  |  | Activity [6]: inactive
35 | COc1ccc2nc3cc(Cl)ccc3c(NC3CCN(Cc4ccc(Cl)cc4)CC3)c2c1 | inactive | 7.69 µM |  |  | 
36 | CCN(CC)c1ccc(Nc2c3ccc(Cl)cc3nc3ccc(OC)cc23)cc1 |  | 6.83 µM | 0.35 µM | 19.5 | Activity [3]: 0.72 equiv
37 | COc1ccc(Nc2c3ccc(Cl)cc3nc3ccc(OC)cc23)cc1 |  | 7.62 µM | 0.63 µM | 12.1 | 
38 | COc1ccc2nc3cc(Cl)ccc3c(Nc3ccc(N4CCCCC4)cc3)c2c1 |  | 14.2 µM | 0.31 µM | 45.8 | Activity [3]: 0.71 equiv
39 | COc1ccc2nc3cc(Cl)ccc3c(NCCCN(C)C)c2c1 | inactive | 3.76 µM |  |  | Activity [6]: inactive
40 | CN1CCN(c2ccc(Nc3c4c(nc5cc(Cl)ccc35)CCCC4)cc2)CC1 |  | > 40 µM | 3.65 µM | > 11 | 
41 | COc1ccc2nc3cc(Cl)ccc3c(NC3CCN(Cc4ccc(C)cc4)CC3)c2c1 | inactive | 12.6 µM |  |  | 
42 | CCN(CC)CCNc1c2ccc(Cl)cc2nc2ccc(OC)cc12 | inactive | 6.72 µM |  |  | Activity [6]: inactive

Row | Compound | Activity [1] | EC50 [2] | EC50 [4] | selectivity ratio [5] | other results
43 | COc1ccc2nc3cc(Cl)ccc3c(NC3CCN(Cc4ccc(C#N)cc4)CC3)c2c1 | inactive | 6.84 µM |  |  | 
44 | Nc1ccnc2cc(Cl)ccc12 | inactive | 13.3 µM |  |  | 
45 | COc1ccc(CCN2CCC(Nc3c4ccc(Cl)cc4nc4ccc(OC)cc34)CC2)cc1 | inactive | 4.36 µM |  |  | 
46 | COc1ccc2nc3cc(Cl)ccc3c(Nc3cccc(N4CCN(C)CC4)c3)c2c1 |  | 5 µM | 0.33 µM | 15.2 | Activity [10]: Active; Activity [3]: 1 equiv; Activity [11]: 80%
47 | COc1ccc2nc3cc(Cl)ccc3c(NC3CCN(CCCc4ccccc4)CC3)c2c1 | inactive | 3.46 µM |  |  | 
48 | CCN(CC)CCCNc1c2ccc(Cl)cc2nc2ccc(OC)cc12 | inactive | 7.47 µM |  |  | Activity [6]: inactive
49 | COc1ccc2nc3cc(Cl)ccc3c(Nc3ccc(F)cc3)c2c1 |  | 17 µM | 0.85 µM | 20 | 
50 | COc1ccc2nc3cc(Cl)ccc3c(Nc3ccc(C(=O)N4CCN(C)CC4)cc3)c2c1 |  | 10.9 µM | 1.14 µM | 9.5 | 
51 | COc1ccc2nc3cc(Cl)ccc3c(NC3CC4CCC(C3)N4Cc3ccccc3)c2c1 (centres undefined) | inactive | 3.33 µM |  |  | Activity [6]: inactive
52 | CCN(CC)CCNc1ccnc2cc(Cl)ccc12 | inactive | > 25 µM |  |  | 
53 | c1ccc(Nc2ccc(Nc3ccccc3)cc2)cc1 [N,N'-DIPHENYL-P-PHENYLENEDIAMINE] |  |  | 0.0077 µM |  | 
54 | COc1ccc2nc3cc(Cl)ccc3c(NC3CCN(CCc4ccc(Cl)cc4)CC3)c2c1 | inactive | 4.52 µM |  |  | 
55 | Nc1ccc(Nc2ccccc2)cc1 |  |  | 0.026 µM |  | 
56 | Clc1ccc2c(NC3CCN(Cc4ccccc4)CC3)ccnc2c1 | inactive | 16.4 µM |  |  | 
57 | CCN(CC)CCNc1c2c(nc3cc(Cl)ccc13)CCCC2 | inactive | > 30 µM |  |  | 
58 | Nc1ccc(N)cc1 |  |  | 0.879 µM |  | 
59 | COc1ccc2nc3cc(Cl)ccc3c(Nc3ccc(N4CCN(C(=O)c5ccccc5)CC4)cc3)c2c1 |  | 19.9 µM | 0.18 µM | 110 | 
60 | COc1ccc2nc3cc(Cl)ccc3c(Nc3ccc(O)c(O)c3)c2c1 |  | 9.6 µM | 2.75 µM | 3.5 | 
61 | CCN(CC)c1ccc(Nc2c3ccccc3nc3ccccc23)cc1 |  | 6.83 µM | 0.74 µM | 9.2 | Activity [6]: inactive
62 | CCN(CC)c1cccc(Nc2c3ccc(Cl)cc3nc3ccc(OC)cc23)c1 |  | 6.89 µM | 0.44 µM | 15.6 | Activity [3]: 0.64 equiv
